In the test the target is T1, Sodium- and chloride-dependent taurine transporter (Homo sapiens, UniProt P31641).
T1 sequence (P31641 whole entry): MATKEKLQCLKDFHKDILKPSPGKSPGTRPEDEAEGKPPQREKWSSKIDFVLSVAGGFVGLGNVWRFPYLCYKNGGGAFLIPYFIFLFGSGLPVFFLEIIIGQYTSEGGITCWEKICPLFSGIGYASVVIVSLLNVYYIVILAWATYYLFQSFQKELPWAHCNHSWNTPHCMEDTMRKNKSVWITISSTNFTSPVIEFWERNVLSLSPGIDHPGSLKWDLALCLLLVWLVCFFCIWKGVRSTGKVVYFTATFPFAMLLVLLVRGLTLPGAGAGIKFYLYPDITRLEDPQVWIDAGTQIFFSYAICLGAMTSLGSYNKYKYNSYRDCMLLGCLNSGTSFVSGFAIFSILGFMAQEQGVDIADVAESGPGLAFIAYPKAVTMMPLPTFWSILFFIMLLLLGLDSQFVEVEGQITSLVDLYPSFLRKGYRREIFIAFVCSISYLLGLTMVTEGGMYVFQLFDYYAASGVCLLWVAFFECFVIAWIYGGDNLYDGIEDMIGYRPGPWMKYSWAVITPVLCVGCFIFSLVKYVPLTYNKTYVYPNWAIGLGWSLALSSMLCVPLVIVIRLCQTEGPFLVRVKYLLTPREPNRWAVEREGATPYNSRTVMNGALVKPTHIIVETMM
The test is described as follows: Substrate uptake by the Taurine Transporter (TauT, SLC6A6) as assessed by the fluorescent FLIPR membrane potential dye in HEK-293 JumpIN-SLC6A6 cells (PubChem AID: 1794824). It is filed as functional, cell-based, HEK293.

As a reminder, the EC50 is the midpoint of the concentration-response curve.

As for `NCCCC(=O)O` [GAMMA-AMINOBUTYRIC ACID], the EC50 turned out to be 354 µM. With `NCCS(=O)(=O)O` [TAURINE], the EC50 came out at 10 µM.
